Reference: the NIST ThermoML archive (doi:10.1021/acs.jced.8b00663)
Numbers after ± are expanded uncertainties.

Columns and labels:
[1] = Crystal; DTA
[2] = Molar enthalpy of transition or fusion; conditions: Crystal; DSC

Normal melting temperature [1]: 149.00 ± 1.1 °C
Molar enthalpy of transition or fusion [2]: 8.93 ± 0.406 kcal/mol
SMILES: CCOC(=O)C1=C[C@]2(CC)CCCN3CCc4c(n1c1ccccc41)[C@@H]32 [vinpocetine]
